Source: PubChem BioAssay (NCI)
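Tested at 5 concentrations; 48 h exposure; 96-well plates; endpoints linearly interpolated, else capped at highest concentration. The concentration for 50% growth inhibition is given as GI50. TGI is the concentration that stops growth completely.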

Legend:
Test in all cases: NCI-60 cell line screen, 48 h
EKVX NSCLC = system: EKVX NSCLC
SK-MEL-5 melanoma = system: SK-MEL-5 melanoma
LOX IMVI melanoma = system: LOX IMVI melanoma
RPMI-8226 leukemia = system: RPMI-8226 leukemia
SN12C renal = system: SN12C renal
UACC-62 melanoma = system: UACC-62 melanoma
HCC-2998 colon = system: HCC-2998 colon
UACC-257 melanoma = system: UACC-257 melanoma
HL-60(TB) leukemia = system: HL-60(TB) leukemia
CAKI-1 renal = system: CAKI-1 renal
UO-31 renal = system: UO-31 renal
OVCAR-4 ovarian = system: OVCAR-4 ovarian
SW-620 colon = system: SW-620 colon
SNB-75 CNS = system: SNB-75 CNS
OVCAR-5 ovarian = system: OVCAR-5 ovarian
786-0 renal = system: 786-0 renal
M14 melanoma = system: M14 melanoma
TK-10 renal = system: TK-10 renal
SK-MEL-28 melanoma = system: SK-MEL-28 melanoma
ACHN renal = system: ACHN renal
SK-MEL-2 melanoma = system: SK-MEL-2 melanoma
MOLT-4 leukemia = system: MOLT-4 leukemia
COLO 205 colon = system: COLO 205 colon
SK-OV-3 ovarian = system: SK-OV-3 ovarian
HCT-15 colon = system: HCT-15 colon
CCRF-CEM leukemia = system: CCRF-CEM leukemia
PC-3 prostate = system: PC-3 prostate
NCI-H522 lung = system: NCI-H522 lung
T-47D breast = system: T-47D breast
HOP-62 NSCLC = system: HOP-62 NSCLC
K-562 leukemia = system: K-562 leukemia
SF-539 CNS = system: SF-539 CNS
RXF 393 renal = system: RXF 393 renal
SR leukemia = system: SR leukemia
HS 578T breast = system: HS 578T breast
NCI/ADR-RES ovarian = system: NCI/ADR-RES ovarian
KM12 colon = system: KM12 colon
A549 NSCLC = system: A549 NSCLC
BT-549 breast = system: BT-549 breast
MALME-3M melanoma = system: MALME-3M melanoma
OVCAR-3 ovarian = system: OVCAR-3 ovarian
NCI-H23 lung = system: NCI-H23 lung
SNB-19 CNS = system: SNB-19 CNS
SF-268 CNS = system: SF-268 CNS
MCF7 breast = system: MCF7 breast
DU-145 prostate = system: DU-145 prostate
NCI-H226 lung = system: NCI-H226 lung
OVCAR-8 ovarian = system: OVCAR-8 ovarian
MDA-MB-231 breast = system: MDA-MB-231 breast
NCI-H460 lung = system: NCI-H460 lung
SF-295 CNS = system: SF-295 CNS
HT29 colon = system: HT29 colon
HCT-116 colon = system: HCT-116 colon
MDA-MB-435 = system: MDA-MB-435
A498 renal = system: A498 renal
IGROV1 ovarian = system: IGROV1 ovarian
HOP-92 NSCLC = system: HOP-92 NSCLC

For `Cc1cc(OCc2n[nH]c(=S)n2/N=C/c2ccc(F)cc2)ccc1Cl`, which GI50 (EKVX NSCLC) is on record?
The GI50 was 64.4 µM.

What about the TGI (EKVX NSCLC) of the same molecule?
Its TGI is greater than 100 µM.

And the GI50 (SK-MEL-5 melanoma)?
Its GI50 is 17.9 µM.

What about the TGI (SK-MEL-5 melanoma) of the same molecule?
The TGI was 35 µM.

And the GI50 (LOX IMVI melanoma)?
Its GI50 is 16.1 µM.

What about the TGI (LOX IMVI melanoma) of the same molecule?
The TGI was 32.4 µM.

What about the GI50 (RPMI-8226 leukemia) of the same molecule?
The GI50 was 16.7 µM.

And the TGI (RPMI-8226 leukemia)?
Its TGI is 40.1 µM.

And the GI50 (SN12C renal)?
The GI50 was 19.6 µM.

And the TGI (SN12C renal)?
The TGI was 37.1 µM.

And the GI50 (UACC-62 melanoma)?
Its GI50 is 20.1 µM.

And the TGI (UACC-62 melanoma)?
Its TGI is 41.8 µM.

What about the GI50 (HCC-2998 colon) of the same molecule?
The GI50 was 20.6 µM.

And the TGI (HCC-2998 colon)?
Its TGI is 43.7 µM.

And the GI50 (UACC-257 melanoma)?
The GI50 was 26.4 µM.

What about the TGI (UACC-257 melanoma) of the same molecule?
Its TGI is 62 µM.

What about the GI50 (HL-60(TB) leukemia) of the same molecule?
Its GI50 is 18.3 µM.

And the TGI (HL-60(TB) leukemia)?
Its TGI is 47.2 µM.

What about the GI50 (CAKI-1 renal) of the same molecule?
Its GI50 is 42.8 µM.

What about the TGI (CAKI-1 renal) of the same molecule?
Its TGI is greater than 100 µM.

What about the GI50 (UO-31 renal) of the same molecule?
The GI50 was 29.5 µM.

What about the TGI (UO-31 renal) of the same molecule?
The TGI was 91.6 µM.

And the GI50 (OVCAR-4 ovarian)?
The GI50 was 25.4 µM.

And the TGI (OVCAR-4 ovarian)?
Its TGI is 55.4 µM.

And the GI50 (SW-620 colon)?
The GI50 was 34.5 µM.

What about the TGI (SW-620 colon) of the same molecule?
The TGI was greater than 100 µM.

What about the GI50 (SNB-75 CNS) of the same molecule?
The GI50 was 22.7 µM.

What about the TGI (SNB-75 CNS) of the same molecule?
Its TGI is 69.2 µM.

What about the GI50 (OVCAR-5 ovarian) of the same molecule?
Its GI50 is greater than 100 µM.

What about the TGI (OVCAR-5 ovarian) of the same molecule?
The TGI was greater than 100 µM.

And the GI50 (786-0 renal)?
The GI50 was 29.2 µM.

What about the TGI (786-0 renal) of the same molecule?
Its TGI is 87.2 µM.

What about the GI50 (M14 melanoma) of the same molecule?
Its GI50 is 29 µM.

What about the TGI (M14 melanoma) of the same molecule?
Its TGI is greater than 100 µM.

What about the GI50 (TK-10 renal) of the same molecule?
The GI50 was 19.1 µM.

What about the TGI (TK-10 renal) of the same molecule?
The TGI was 58 µM.

And the GI50 (SK-MEL-28 melanoma)?
Its GI50 is 26.7 µM.

What about the TGI (SK-MEL-28 melanoma) of the same molecule?
The TGI was 74.2 µM.

And the GI50 (ACHN renal)?
The GI50 was 31.2 µM.

And the TGI (ACHN renal)?
Its TGI is 87.5 µM.

And the GI50 (SK-MEL-2 melanoma)?
Its GI50 is 23.1 µM.

What about the TGI (SK-MEL-2 melanoma) of the same molecule?
The TGI was 57.2 µM.

And the GI50 (MOLT-4 leukemia)?
The GI50 was 19.4 µM.

What about the TGI (MOLT-4 leukemia) of the same molecule?
Its TGI is 51 µM.

What about the GI50 (COLO 205 colon) of the same molecule?
Its GI50 is 15.9 µM.

And the TGI (COLO 205 colon)?
Its TGI is 35.8 µM.

What about the GI50 (SK-OV-3 ovarian) of the same molecule?
Its GI50 is 31.7 µM.

What about the TGI (SK-OV-3 ovarian) of the same molecule?
Its TGI is 82.3 µM.

What about the GI50 (HCT-15 colon) of the same molecule?
The GI50 was 19.2 µM.

What about the TGI (HCT-15 colon) of the same molecule?
The TGI was 47.2 µM.

What about the GI50 (CCRF-CEM leukemia) of the same molecule?
The GI50 was 25.7 µM.

What about the TGI (CCRF-CEM leukemia) of the same molecule?
The TGI was 70.2 µM.

What about the GI50 (PC-3 prostate) of the same molecule?
The GI50 was 29.2 µM.

What about the TGI (PC-3 prostate) of the same molecule?
Its TGI is greater than 100 µM.

What about the GI50 (NCI-H522 lung) of the same molecule?
The GI50 was 21.7 µM.

What about the TGI (NCI-H522 lung) of the same molecule?
Its TGI is 54.8 µM.

What about the GI50 (T-47D breast) of the same molecule?
The GI50 was 20.5 µM.

What about the TGI (T-47D breast) of the same molecule?
Its TGI is 57.3 µM.

And the GI50 (HOP-62 NSCLC)?
The GI50 was 81 µM.

What about the TGI (HOP-62 NSCLC) of the same molecule?
Its TGI is greater than 100 µM.

What about the GI50 (K-562 leukemia) of the same molecule?
Its GI50 is 20.8 µM.

What about the TGI (K-562 leukemia) of the same molecule?
The TGI was 54 µM.

And the GI50 (SF-539 CNS)?
The GI50 was 25.8 µM.

And the TGI (SF-539 CNS)?
The TGI was 57.4 µM.

What about the GI50 (RXF 393 renal) of the same molecule?
Its GI50 is 22.4 µM.

What about the TGI (RXF 393 renal) of the same molecule?
The TGI was 46.8 µM.

And the GI50 (SR leukemia)?
Its GI50 is 18.5 µM.

And the TGI (SR leukemia)?
The TGI was 39.7 µM.

And the GI50 (HS 578T breast)?
The GI50 was 56.6 µM.

And the TGI (HS 578T breast)?
Its TGI is greater than 100 µM.

What about the GI50 (NCI/ADR-RES ovarian) of the same molecule?
The GI50 was 29.3 µM.

What about the TGI (NCI/ADR-RES ovarian) of the same molecule?
The TGI was 87.3 µM.

What about the GI50 (KM12 colon) of the same molecule?
Its GI50 is 22.1 µM.

What about the TGI (KM12 colon) of the same molecule?
The TGI was 53.8 µM.

And the GI50 (A549 NSCLC)?
The GI50 was 26.6 µM.

What about the TGI (A549 NSCLC) of the same molecule?
The TGI was 68.6 µM.

And the GI50 (BT-549 breast)?
Its GI50 is 48 µM.

And the TGI (BT-549 breast)?
Its TGI is greater than 100 µM.

What about the GI50 (MALME-3M melanoma) of the same molecule?
Its GI50 is 25.1 µM.

What about the TGI (MALME-3M melanoma) of the same molecule?
The TGI was 56.5 µM.

And the GI50 (OVCAR-3 ovarian)?
Its GI50 is 22.9 µM.

And the TGI (OVCAR-3 ovarian)?
The TGI was 49.4 µM.

And the GI50 (NCI-H23 lung)?
The GI50 was 29.8 µM.

And the TGI (NCI-H23 lung)?
Its TGI is 94 µM.

And the GI50 (SNB-19 CNS)?
The GI50 was 27.8 µM.

And the TGI (SNB-19 CNS)?
The TGI was 83.8 µM.

And the GI50 (SF-268 CNS)?
The GI50 was 30 µM.

And the TGI (SF-268 CNS)?
Its TGI is 86.7 µM.

What about the GI50 (MCF7 breast) of the same molecule?
Its GI50 is 33.1 µM.

What about the TGI (MCF7 breast) of the same molecule?
Its TGI is greater than 100 µM.

What about the GI50 (DU-145 prostate) of the same molecule?
The GI50 was 56.7 µM.

And the TGI (DU-145 prostate)?
The TGI was greater than 100 µM.

What about the GI50 (NCI-H226 lung) of the same molecule?
Its GI50 is 22.4 µM.

And the TGI (NCI-H226 lung)?
The TGI was 54.7 µM.

And the GI50 (OVCAR-8 ovarian)?
The GI50 was 38.8 µM.

What about the TGI (OVCAR-8 ovarian) of the same molecule?
Its TGI is greater than 100 µM.

What about the GI50 (MDA-MB-231 breast) of the same molecule?
Its GI50 is 23.4 µM.

And the TGI (MDA-MB-231 breast)?
The TGI was 62.5 µM.

What about the GI50 (NCI-H460 lung) of the same molecule?
The GI50 was 28.6 µM.

What about the TGI (NCI-H460 lung) of the same molecule?
The TGI was greater than 100 µM.

And the GI50 (SF-295 CNS)?
The GI50 was 30.1 µM.

And the TGI (SF-295 CNS)?
Its TGI is greater than 100 µM.

And the GI50 (HT29 colon)?
Its GI50 is 18.9 µM.

What about the TGI (HT29 colon) of the same molecule?
Its TGI is 37.7 µM.

What about the GI50 (HCT-116 colon) of the same molecule?
The GI50 was 23.3 µM.

What about the TGI (HCT-116 colon) of the same molecule?
Its TGI is 53.1 µM.

And the GI50 (MDA-MB-435)?
Its GI50 is 25.9 µM.

And the TGI (MDA-MB-435)?
Its TGI is greater than 100 µM.

And the GI50 (A498 renal)?
Its GI50 is 25.1 µM.

What about the TGI (A498 renal) of the same molecule?
The TGI was 68.3 µM.

What about the GI50 (IGROV1 ovarian) of the same molecule?
The GI50 was 25.4 µM.

And the TGI (IGROV1 ovarian)?
Its TGI is 82.3 µM.

And the GI50 (HOP-92 NSCLC)?
The GI50 was 32.6 µM.

And the TGI (HOP-92 NSCLC)?
The TGI was greater than 100 µM.
